Laboratory results reported in patent publication US20170119907A1, “Targeted Therapeutics” (MEDIVATION TECHNOLOGIES, INC., priority 2014, published 2017).

Tests used:
[1] = tested on: human MSCs; experiment: Human MSC viability, trypan blue staining; format: cell-based; details: 30 min, concentrations 20 μM or lower, FIG. 3B
Description: (§1) Cell viability was measured by using trypan blue to stain dead cells. Cells (2×10^5) were incubated with various concentrations of Compound 4 for 30 min, and viable cells were counted and compared to the number of viable cells in an untreated sample. Values for treated cells were normalized to untreated cells.

[2] = tested on: human MSCs; experiment: Viability and proliferation of human MSCs in the presence of compound (Example B2); format: cell-based; details: concentrations of 20 μM or below
[3] = tested on: ARH-77 cells; experiment: Binding of compounds to ARH-77 cells (Example B1a); format: cell-based; details: photomicrographs, FIG. 2A
[4] = tested on: human MSCs; experiment: Human MSC proliferation, CELLTITER GLO assay (ATP levels); format: cell-based; details: 24 h, various concentrations, compared with untreated cells; FIG. 3A
Description: This example reports the effects of 24 hour treatment with Compound 4 on viability and proliferation of human MSCs.
Cell proliferation was measured using the CELLTITER GLO® assay (Promega), which measures ATP levels. Cells (5×10^5) were incubated with various concentrations of Compound 4 for 24 h. Proliferation was compared to that of untreated cells. Proliferation values for 24 h were normalized to time=0 and compared with values for untreated cells.

[5] = tested on: ARH-77 cells; experiment: Binding to ARH-77 cells (fluorescence staining); format: cell-based; details: 10 μM, 30 min; 530 nm/600 nm filter set; FIG. 2A
Description: ARH-77 cells (an EBV-transformed B lymphoblastoid cell line established from cells of a patient with plasma cell leukemia) were incubated as indicated with PBS or 10 μM Compound 4 for 30 min. Cells were washed twice with 1 mL PBS, and staining was detected using a 530 nm/600 nm filter set on a Molecular Imaging Gel Logic system.

[6] = tested on: human MSCs; experiment: Binding to and staining of human MSCs; format: cell-based; details: photomicrographs, FIG. 4A
[7] = tested on: Raji cells; experiment: Raji cell viability, trypan blue staining; format: cell-based; details: times and concentrations tested (at or below 20 μM), FIG. 3C
Description: as §1
In a similar fashion to Example B2a, Compound 20 was assessed for its effect on viability of Raji cells as determined by trypan blue staining, as described in Example B2a.

[8] = tested on: articular cartilage degeneration (MIA model); experiment: Monosodium iodoacetate (MIA) model of articular cartilage degeneration, compound-incubated hMSCs; format: in vivo, Sprague Dawley rats; details: rat MIA 3 mg intra-articular; 4×10^5 hMSCs incubated in 10 μM compound injected day 7; evaluated day 28; FIG. 7
Description: 6 to 8 week old Sprague Dawley rats were anesthetized with 3% sevofluorane and injected in both the right and left knee intra-articularly with MIA (monosodium iodoacetate, Sigma Cat No I2512) at a dose of 3 mg in a volume of 50 pt. MIA was dissolved in sterile saline (0.9%). hMSCs (Lonza, Cat No PT-2501) were cultured in complete MSCCM™ mesenchymal stem cell culture medium (Lonza, Cat No PT-3238).
Seven days after the injection of MIA, 2-10 million hMSCs were collected and incubated for 20 min in 500 μL of 10 μM Compound 20 in PBS or in PBS alone (untreated). Cells were washed with PBS and counted.
Rats were again anesthetized with 3% sevofluorane. 4×10^5 hMSCs incubated in PBS or in Compound 20 were injected intraarticularly through the patellar ligament. Untreated hMSC were injected into the left knee joint, and Compound 20-stained hMSCs were injected into the right knee joint.
Twenty eight days after the injection of MIA, rats were euthanized, and femoral condyles were extracted for macroscopic evaluation.

Cc1cc2nc3cc(C)c(NCCCCCCCCNc4cc5c(cc4C)nc4cc(C)c(N)cc4[n+]5-c4ccccc4)cc3[n+](-c3ccccc3)c2cc1N.[Cl-].[Cl-] [Compound 4, 7,7′-(octane-1,8-diylbis(azanediyl))bis(3-amino-2,8-dimethyl-5-phenylphenazin-5-ium) chloride]
Effect on viability of human MSCs [1]: did not affect the viability | proliferation of human MSCs ([2]; FIG. 3A): do not affect | viability of human MSCs relative to untreated human MSCs ([2]; FIG. 3B): do not affect | binding to ARH-77 cells [3]: binding | Effect on human MSC proliferation [4]: does not affect human MSC proliferation | binding to ARH-77 cells [5]: binds to ARH-77 cells | binding to and staining of human MSCs [6]: binds to and stains

Cc1cc2nc3cc(C)c(NCCCCCCNC(=O)c4ccc(-c5ccc(C(=O)NCCCCCCNc6cc7c(cc6C)nc6cc(C)c(N)cc6[n+]7-c6ccccc6)cc5)cc4)cc3[n+](-c3ccccc3)c2cc1N.[Cl-].[Cl-] [Compound 20, (3-amino-7-{[6-({4-[4-({6-[(7-amino-5-chloranuide-2,8-dimethyl-5-phenyl-5λ^6,10-phenazin-5-ylium-3-yl)amino]hexyl}carbamoyl)phenyl]phenyl}formamido)hexyl]amino}-2,8-dimethyl-5-phenyl-5λ^6,10-phenazin-5-ylium-5-e)chloranuide]
Toxic effects on Raji cells (viability) [7]: did not have toxic effects | Macroscopic evaluation of femoral condyle cartilage [8]: an improvement in the cartilage and surrounding bone area
